Results published in US20130040983A1, “RAF KINASE INHIBITORS” (priority 2010, published 2013).

Biological target: V600E mutated B-RAF (Homo sapiens, UniProt P15056, V600E)
Experiment: In vitro assay for inhibition of mutant B-RAF kinase (recombinant V600E B-RAF, MEK (K97R) substrate)
Format: biochemical
Details: 10 nM recombinant V600E B-RAF, 1 μM MEK (K97R) substrate; class symbols; read-out: IC50 (μM) V600E B-Raf
Procedure: (§1) The ability of compounds described herein to inhibit RAF kinase activity was determined from biochemical kinase assays using recombinant RAF proteins as known in the art.
(§2) Solutions of varying concentrations of test compounds or vehicle were added to 10 nM recombinant wild-type B-RAF or V600E mutated B-RAF proteins incubated in the presence of different concentrations of ATP and 1 μM MEK (K97R) as substrate, as previously described (Wilhelm, S. M., et al., Cancer Res., 64: 7099-7109, 2004; Mason, C. S., et al., EMBO J. 18: 2137-2148, 1999; Marais, R., et al., J. Biol. Chem., 272: 4378-4383, 1997). At least triplicate determinations for each individual test compound concentration were made and data plotted as mean±standard deviation relative to the control vehicle.

Sequence of V600E mutated B-RAF (P15056 whole entry V600E): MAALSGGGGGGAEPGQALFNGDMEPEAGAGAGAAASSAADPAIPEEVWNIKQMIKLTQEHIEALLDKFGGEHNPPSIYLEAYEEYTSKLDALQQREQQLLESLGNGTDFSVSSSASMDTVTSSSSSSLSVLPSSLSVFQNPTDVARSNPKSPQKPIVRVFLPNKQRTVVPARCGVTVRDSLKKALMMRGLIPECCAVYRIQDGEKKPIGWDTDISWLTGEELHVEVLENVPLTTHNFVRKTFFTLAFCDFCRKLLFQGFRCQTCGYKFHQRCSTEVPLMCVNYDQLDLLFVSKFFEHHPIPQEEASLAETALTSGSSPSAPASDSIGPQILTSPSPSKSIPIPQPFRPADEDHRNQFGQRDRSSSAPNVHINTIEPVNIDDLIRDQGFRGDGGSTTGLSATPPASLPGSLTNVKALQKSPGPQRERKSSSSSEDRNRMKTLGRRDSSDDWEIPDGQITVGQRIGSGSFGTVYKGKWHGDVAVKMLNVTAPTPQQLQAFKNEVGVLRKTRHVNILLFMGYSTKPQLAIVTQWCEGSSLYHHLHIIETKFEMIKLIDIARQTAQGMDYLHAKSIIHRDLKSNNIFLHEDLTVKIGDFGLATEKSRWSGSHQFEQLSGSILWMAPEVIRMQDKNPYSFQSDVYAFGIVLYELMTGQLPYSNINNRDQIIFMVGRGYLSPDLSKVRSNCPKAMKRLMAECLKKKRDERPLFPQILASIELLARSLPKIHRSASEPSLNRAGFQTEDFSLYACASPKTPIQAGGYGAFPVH

Row | Structure (SMILES) | IC50
1 | O=C(O)c1cc(-c2[nH]c(-c3ccccc3)nc2-c2ccncc2)ccc1Cl [Example 10, 2-chloro-5-(2-phenyl-4-(pyridin-4-yl)-1H-imidazol-5-yl)benzoic acid] | < 0.1 µM
2 | CCCS(=O)(=O)Nc1cccc(-c2[nH]c(-c3ccccc3)nc2-c2ccncc2)c1 [Example 5, N-(3-(2-phenyl-4-(pyridin-4-yl)-1H-imidazol-5-yl)phenyl)propane-1-sulfonamide] | 1 to 10 µM
3 | O=C(O)c1cc(F)cc(-c2[nH]c(-c3ccccc3)nc2-c2ccncc2)c1 [Example 6, 3-fluoro-5-(2-phenyl-4-(pyridin-4-yl)-1H-imidazol-5-yl)benzoic acid] | 0.1 to 1 µM
4 | O=C(O)c1cccc(-c2[nH]c(-c3ccccc3)nc2-c2ccncc2)c1 [Example 1, 3-(2-phenyl-4-(pyridin-4-yl)-1H-imidazol-5-yl)benzoic acid] | 0.1 to 1 µM
5 | O=C(O)c1ccc(F)c(-c2[nH]c(-c3ccccc3)nc2-c2ccncc2)c1 [Example 9, 4-fluoro-3-(2-phenyl-4-(pyridin-4-yl)-1H-imidazol-5-yl)benzoic acid] | 1 to 10 µM
6 | Cc1ccc(-c2[nH]c(-c3ccccc3)nc2-c2ccncc2)cc1C(=O)O [Example 27, 2-methyl-5-(2-phenyl-4-(pyridin-4-yl)-1H-imidazol-5-yl)benzoic acid] | 0.1 to 1 µM
7 | NC(=O)c1cccc(-c2[nH]c(-c3ccccc3)nc2-c2ccncc2)c1 [Example 21, 3-(2-phenyl-4-(pyridin-4-yl)-1H-imidazol-5-yl)benzamide] | 1 to 10 µM
8 | O=C(O)c1cccc(-c2cn(-c3ccccc3)nc2-c2ccncc2)c1 [Example 3, 3-(1-phenyl-3-(pyridin-4-yl)-1H-pyrazol-4-yl)benzoic acid] | 0.1 to 1 µM
9 | O=C(O)c1cccc(-c2[nH]c(-c3ccccc3)nc2-c2ccncc2)c1F [Example 8, 2-fluoro-3-(2-phenyl-4-(pyridin-4-yl)-1H-imidazol-5-yl)benzoic acid] | 0.1 to 1 µM
10 | O=C(O)c1cc(Cl)cc(-c2[nH]c(-c3ccccc3)nc2-c2ccncc2)c1 [Example 14, 3-chloro-5-(2-phenyl-4-(pyridin-4-yl)-1H-imidazol-5-yl)benzoic acid] | 0.1 to 1 µM
11 | CCS(=O)(=O)Nc1cccc(-c2[nH]c(-c3ccccc3)nc2-c2ccncc2)c1 [Example 4, N-(3-(2-phenyl-4-(pyridin-4-yl)-1H-imidazol-5-yl)phenyl)ethanesulfonamide] | 1 to 10 µM
12 | O=C(O)c1cc(-c2[nH]c(-c3ccccc3)nc2-c2ccncc2)ccc1F [Example 7, 2-fluoro-5-(2-phenyl-4-(pyridin-4-yl)-1H-imidazol-5-yl)benzoic acid] | 0.1 to 1 µM
13 | O=C(O)c1cc(-c2cn(-c3ccccc3)nc2-c2ccncc2)ccc1Cl [Example 15, 2-chloro-5-(1-phenyl-3-(pyridin-4-yl)-1H-pyrazol-4-yl)benzoic acid] | < 0.1 µM
14 | CS(=O)(=O)Nc1cc(-c2[nH]c(-c3ccccc3)nc2-c2ccncc2)ccc1Cl [Example 12, N-(2-chloro-5-(2-phenyl-4-(pyridin-4-yl)-1H-imidazol-5-yl)phenyl)methanesulfonamide] | 0.1 to 1 µM
15 | O=C(O)c1cccc(-c2nn(-c3ccccc3)cc2-c2ccncc2)c1 [Example 13, 3-(1-phenyl-4-(pyridin-4-yl)-1H-pyrazol-3-yl)benzoic acid] | 0.1 to 1 µM

Same assay, conditions: 10 nM recombinant V600E B-RAF, 1 μM MEK (K97R) substrate; read-out: BRAF-V600E IC50

Row | Structure (SMILES) | IC50
16 | O=C(O)c1cccc(-c2[nH]c(-c3ccccc3)nc2-c2ccncc2)c1 [Example 1, 3-(2-phenyl-4-(pyridin-4-yl)-1H-imidazol-5-yl)benzoic acid] | 0.13 µM

Biological target: wild-type B-RAF (Homo sapiens, UniProt P15056)
Sequence (P15056 whole entry): as the sequence (P15056 whole entry V600E) above, with E600V counted along it
Experiment: In vitro assay for inhibition of B-RAF kinase (recombinant wild-type B-RAF, MEK (K97R) substrate)
Format: biochemical
Details: 10 nM recombinant wild-type B-RAF, 1 μM MEK (K97R) substrate; read-out: BRAF IC50
Procedure: as §1
as §2, with “A-RAF, wild-type B-RAF,” for “B-RAF”, “wild-type C-RAF” for “V600E mutated B-RAF”
as §2

Row | Structure (SMILES) | IC50
17 | O=C(O)c1cccc(-c2[nH]c(-c3ccccc3)nc2-c2ccncc2)c1 [Example 1, 3-(2-phenyl-4-(pyridin-4-yl)-1H-imidazol-5-yl)benzoic acid] | 3100 nM
18 | CS(=O)(=O)Nc1cccc(-c2[nH]c(-c3ccccc3)nc2-c2ccncc2)c1 [Example 2, N-(3-(2-phenyl-4-(pyridin-4-yl)-1H-imidazol-5-yl)phenyl)methanesulfonamide] | 800 nM
